These are literature values, as cited in patent US20220395497A1, “Cancer Treatment Using Camptothecin Derivatives” (priority 2019, published 2022).

Like-named read-outs stand apart in the source and are kept apart here. Marks after values point to notes of the source that are not given here.

The subject of series [1] is reGBM patients. The conditions noted are these: cited from earlier work; for Diarrhoea Grades 3-5 / Neutropenia Grades 3-4 / Thrombocytopenia Grades 3-4: reGBM, single agent.
Series [2] concerns Colorectal cancer patients. The conditions noted are these: single agent, bolus, N = 223; cited from earlier work.
Series [3] has as its system Colorectal cancer patients. The conditions noted are these: w/5FU, LV, bolus, N = 225; cited from earlier work.
Series [4] deals with Metastatic Colorectal cancer patients. The settings on record: previously treated, cited from earlier work.
The test system of series [5] is Recurrent Colorectal cancer patients. The settings on record: N = 316 across 2 studies, cited from earlier work.
For series [6], the system named is reGBM patients. The conditions noted are these: cited from earlier work.
The subject of series [7] is reGBM patients. The settings on record: single agent vs Enzastaurin, N = 92, Treated = 84; cited from earlier work.
Series [8] deals with reGBM patients. The settings on record: single agent/placebo, N = 64; cited from earlier work.
For series [9] the following is noted: in vivo; cited from earlier work.
For series [10], the system named is cells in the S phase of the cell cycle. The settings on record: in vitro; cited from earlier work.
A further series has as its system GBM/AA patients. The conditions noted are these: single agent Phase II, N = 20 in heavily pretreated bev failures; cited from earlier work.
For the next series, the system named is BCBM patients. The settings on record: Phase 3 BEACON Study, N = 425; cited from earlier work.

Turning to `CC[C@@]1(O)C(=O)OCc2c1cc1n(c2=O)Cc2c-1nc1ccccc1c2/C=N/OC(C)(C)C` [Gimatecan], in the series with reGBM patients [1] (Phase II trial, oral), the “treatment-related toxicities of thrombocytopenia, leukopenia, and neutropenia, patients” value is 10-18%. Further, in the series with reGBM patients [1] (in vivo), the PFS6 is 12%. Also, in the series with reGBM patients [1] (N = 10 High Dose), the “Diarrhoea Grades 3-5” value is given as 0%, the “Neutropenia Grades 3-4” value is given as 30% and the “Thrombocytopenia Grades 3-4” value is reported as 40%. Also, in the series on reGBM patients [1] (N = 10 Low Dose), the “Diarrhoea Grades 3-5” value is on record as 0%, the “Neutropenia Grades 3-4” value is 0% and the “Thrombocytopenia Grades 3-4” value was 5%.

`CCc1c2c(nc3ccc(OC(=O)N4CCC(N5CCCCC5)CC4)cc13)-c1cc3c(c(=O)n1C2)COC(=O)[C@]3(O)CC` [Irinotecan]: the “Diarrhoea Grade 4” value in series [2] is 7%; in series [3], 5%; in series [4] (N = 304, late diarrhoea), 14%**; in [5] (average across 2 studies), 22%*. Besides, the “Nausea Grades 3,4” value in series [2] is 16%; in [3], 16%; in [4] (N = 304), 17%; in series [5] (average across 2 studies) it was 12%*. Also, the “Neutropenia Grade 4” value is recorded as 12% in [2], 24% in series [3], 12% in [4] (N = 304) and 18% in series [5]. Besides, the “Vomiting Grades 3,4” value was 12% in series [2], 10% in series [3], 12% in series [4] (N = 304) and 14%* in [5] (average across 2 studies).

Consider `CC[C@@]1(O)C(=O)OCc2c1cc1n(c2=O)Cc2c-1nc1ccccc1c2CC[Si](C)(C)C` [Karenitecin], for which, in the series with reGBM patients [6] (Phase I trial), the “neutropenia and thrombocytopenia, patients” value is 13-23%. Further, in the series on reGBM patients [6] (reGBM, single agent, N = 30), the “Diarrhoea Grades 3-5” value is 3%, the “Neutropenia Grades 3-4” value was 23% and the “Thrombocytopenia Grades 3-4” value is 13%.

On to `O=NN(CCCl)C(=O)NC1CCCCC1` [Lomustine], for which, in the series with reGBM patients [7], the “Nausea Grades 3-5” value is on record as 0%, the “Neutropenia Grades 3-4” value is 20% and the “Thrombocytopenia Grades 3-4” value was 25%. In the series with reGBM patients [8], the “Diarrhoea Grades 3-5” value is reported as 2%, the “Neutropenia Grades 3-4” value is 3% and the “Thrombocytopenia Grades 3-4” value is 22%.

Take `CCc1c2c(nc3ccc(O)cc13)-c1cc3c(c(=O)n1C2)COC(=O)[C@]3(O)CC` [SN-38]: in series [9], the “ratio of the lactone AUC to total AUC” value is 0.51.

Turning to `CC[C@@]1(O)C(=O)OCc2c1cc1n(c2=O)Cc2cc3ccccc3nc2-1` [camptothecin], the “sensitivity to camptothecin-induced apoptosis, S phase cells vs cells in the G1 or G2 phase” value in series [10] is recorded as 100 to 1,000 times.

For the compound `CC[C@@]1(O)C(=O)OCc2c1cc1n(c2=O)Cc2cc3c(CN(C)C)c(O)ccc3nc2-1` [topotecan], the “ratio of the lactone AUC to total AUC” value in series [9] was 0.37.

With Etirinotecan, the “Diarrhoea Grades 3-5” value in the series with GBM/AA patients was 10%. In the series on BCBM patients, the “Diarrhoea Grades 3-5” value is 10%, the “Nausea Grades 3-5” value was 4% and the “Neutropenia Grades 3-4” value is given as 10%.
